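Following 48 hours of exposure in 96-well plates, responses at five concentrations were used to interpolate endpoints linearly. GI50 is the concentration that inhibits growth by half. TGI: total growth inhibition.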
Experiments:
Assay in all cases: DTP human tumour cell line panel, 48 h
[1] = test system: MDA-MB-435
[2] = test system: SK-MEL-28 melanoma
[3] = test system: HS 578T breast
[4] = test system: HOP-62 NSCLC
[5] = test system: SK-MEL-2 melanoma
[6] = test system: OVCAR-4 ovarian
[7] = test system: NCI-H226 lung

CCN(CCO)CCNc1ccc(C)c2sc3cc(Cl)ccc3c(=O)c12
GI50 [1]: 0.891 µM | TGI [1]: 2.26 µM | GI50 [2]: 1.64 µM | TGI [2]: 3.23 µM | GI50 [3]: 1.76 µM | TGI [3]: 4.46 µM | GI50 [4]: 1.5 µM | TGI [4]: 2.95 µM | GI50 [5]: 1.78 µM | TGI [5]: 3.56 µM | GI50 [6]: 2.18 µM | TGI [6]: 5.15 µM | GI50 [7]: 1.39 µM | TGI [7]: 3.12 µM

Cc1ccc(C(=O)CC(Sc2cccc(Cl)c2Cl)c2ccc(Cl)cc2)cc1C (centres undefined)
GI50 [1]: 20 µM | TGI [1]: 50 µM | GI50 [2]: 20.5 µM | TGI [2]: 44.8 µM | GI50 [3]: 27.9 µM | TGI [3]: 75.2 µM | GI50 [4]: 24.2 µM | TGI [4]: 60.6 µM | GI50 [5]: 20.2 µM | TGI [5]: 39 µM | GI50 [6]: 34.5 µM | TGI [6]: > 100 µM | GI50 [7]: 20.5 µM | TGI [7]: 37.4 µM

Cc1ccc(-c2nc(C(Cl)Cl)n3nc(-c4ccccc4)cc3n2)cc1
GI50 [3]: 1.2 µM | TGI [3]: 3.96 µM | GI50 [4]: 0.566 µM | TGI [4]: 3.15 µM | GI50 [6]: 0.68 µM | TGI [6]: 3.99 µM | GI50 [7]: > 100 µM | TGI [7]: > 100 µM

CCOC(=O)[C@@H](C)C[C@H](Cc1ccccc1)NC(=O)c1csc([C@@H](C[C@H](C(C)C)N(C)C(=O)[C@@H](NC(=O)[C@H]2CCCCN2C)C(C)(C)C)OC(C)=O)n1
GI50 [3]: < 0.00167 µM | TGI [3]: 0.472 µM | GI50 [4]: < 0.00167 µM | TGI [4]: > 16.7 µM | GI50 [5]: < 0.00167 µM | TGI [5]: > 16.7 µM | GI50 [6]: 0.00328 µM | TGI [6]: > 16.7 µM | GI50 [7]: < 0.00167 µM | TGI [7]: 0.104 µM

CCCS(=O)(=O)c1nc(NC2CC2)cc(-c2ccc3c(ccn3C3CC(C)(C)NC(C)(C)C3)c2)n1
GI50 [1]: 1.47 µM | TGI [1]: 2.95 µM | GI50 [3]: 2.1 µM | TGI [3]: 4.93 µM | GI50 [4]: 1.73 µM | TGI [4]: 3.4 µM | GI50 [5]: 1.88 µM | TGI [5]: 3.41 µM | GI50 [7]: 1.74 µM | TGI [7]: 3.71 µM

CN(C)c1nc(-c2cccs2)n2nc(-c3ccc(Cl)cc3)cc2n1
GI50 [2]: > 100 µM | TGI [2]: > 100 µM | GI50 [3]: 3.11 µM | TGI [3]: > 100 µM | GI50 [4]: 2.27 µM | TGI [4]: 6.53 µM | GI50 [5]: 9.03 µM | TGI [5]: > 100 µM | GI50 [7]: 2.73 µM | TGI [7]: > 100 µM

COc1ccc2c(c1)C=CC(C#N)N2C(=O)c1ccccc1 (centres undefined)
TGI [2]: > 100 µM | GI50 [3]: < 0.01 µM | TGI [3]: > 100 µM | GI50 [4]: < 0.01 µM | TGI [4]: > 100 µM | GI50 [5]: < 0.01 µM | TGI [5]: > 100 µM | GI50 [6]: 0.0283 µM | TGI [6]: > 100 µM | GI50 [7]: 4.16 µM | TGI [7]: > 100 µM

COC(=O)NC/C=C\c1nc(CC/C=C\C(=O)OC2CC3CC(=O)O[C@@H](/C=C/CC(C)C)C[C@@H]4CCC(C)C(C[C@@H](OC)CC(C2)O3)O4)co1 (some centres undefined)
GI50 [1]: < 0.01 µM | TGI [1]: 50.1 µM | GI50 [2]: 26.5 µM | TGI [2]: > 100 µM | GI50 [3]: 32.8 µM | TGI [3]: > 100 µM | GI50 [4]: < 0.01 µM | TGI [4]: 79 µM | GI50 [5]: 12.8 µM | TGI [5]: 94.1 µM | GI50 [7]: 24.4 µM | TGI [7]: > 100 µM

NC(N)=N/N=C/c1c(-c2ccccn2)nc2sc(Cl)cn12
GI50 [1]: 7.56 µM | TGI [1]: 14.2 µM | GI50 [3]: 8.91 µM | TGI [3]: 17.3 µM | GI50 [4]: 9.58 µM | TGI [4]: 17.5 µM | GI50 [5]: 7.93 µM | TGI [5]: 15.1 µM

Nc1ccc(SC23CC4CC(CC(C4)C2)C3)cc1
TGI [1]: > 100 µM | TGI [2]: > 100 µM | TGI [3]: > 100 µM | TGI [4]: > 100 µM | TGI [5]: > 100 µM

COc1ccc(-c2cc(-c3cc(Cl)ccc3Cl)nc3nc(=S)[nH]c(N)c23)cc1
GI50 [1]: 3.93 µM | TGI [1]: 17.6 µM | GI50 [2]: 99.3 µM | TGI [2]: > 100 µM | GI50 [3]: 14.6 µM | TGI [3]: 74.8 µM | GI50 [4]: 14.9 µM | TGI [4]: 28.3 µM | GI50 [5]: 81.7 µM | TGI [5]: > 100 µM | GI50 [6]: > 100 µM | TGI [6]: > 100 µM
